pIC50, pKi: −log10 of the molar value.

Assay [1] relates to phospho-SLP-76 (Ser376) in Jurkat cells. The assay is described as follows: Phospho-SLP-76 (Ser376) Homogeneous Time Resolved Fluorescence (HTRF) assay in Jurkat cells. The conditions noted are these: Homo sapiens, Phospho-SLP-76 (Ser376) HTRF, anti-CD3 stimulation, read-out: SLP76 Assay_IC50. Format: cell-based. The method in brief:
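Jurkat cells pre-treated 30 min with compounds (10 μM to 0.1 nM, 11-point, 0.1% DMSO), then stimulated with 200 μg/mL F(ab)2-complexed anti-CD3 (UCHT1) for 15 min at 37 °C. Lysate phospho-SLP-76 detected by HTRF after overnight antibody incubation; IC50 from four-parameter fit.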

In assay [2] the target is human full-length recombinant HPK1 (Homo sapiens (Human), UniProt Q92918). Briefly: HPK1 biochemical enzyme assay, microfluidic mobility shift assay (MSA). The conditions noted are these: HPK1 mobility shift assay; read-out: HPK1 Enzyme Assay_Ki.
human full-length recombinant HPK1, sequence (Q92918 whole entry): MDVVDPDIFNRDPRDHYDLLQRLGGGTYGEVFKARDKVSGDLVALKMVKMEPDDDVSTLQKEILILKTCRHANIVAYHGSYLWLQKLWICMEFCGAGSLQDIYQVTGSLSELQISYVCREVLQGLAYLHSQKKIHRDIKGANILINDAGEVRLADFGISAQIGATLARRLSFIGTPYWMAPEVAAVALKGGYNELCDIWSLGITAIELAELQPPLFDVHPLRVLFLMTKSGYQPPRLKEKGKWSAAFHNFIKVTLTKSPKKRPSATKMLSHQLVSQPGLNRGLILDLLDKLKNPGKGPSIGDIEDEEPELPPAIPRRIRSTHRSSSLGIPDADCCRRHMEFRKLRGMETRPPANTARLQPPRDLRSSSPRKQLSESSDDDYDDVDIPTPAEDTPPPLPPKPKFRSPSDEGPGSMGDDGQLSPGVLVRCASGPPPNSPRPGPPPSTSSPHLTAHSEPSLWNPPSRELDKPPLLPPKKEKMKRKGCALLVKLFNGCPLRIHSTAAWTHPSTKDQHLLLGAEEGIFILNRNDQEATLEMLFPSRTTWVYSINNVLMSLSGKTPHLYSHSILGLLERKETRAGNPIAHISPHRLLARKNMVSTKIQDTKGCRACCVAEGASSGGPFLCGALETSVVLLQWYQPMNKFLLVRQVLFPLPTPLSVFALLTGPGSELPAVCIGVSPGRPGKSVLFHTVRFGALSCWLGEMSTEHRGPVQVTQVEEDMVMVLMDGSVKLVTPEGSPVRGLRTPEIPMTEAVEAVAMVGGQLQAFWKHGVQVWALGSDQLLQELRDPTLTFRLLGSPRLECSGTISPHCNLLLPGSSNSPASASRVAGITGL

Take `CCN(CC)c1cc2c(c(CNC)n1)CN(c1cccc(-c3nnc(C)n3CC)n1)C2=O` [Example 97, 6-(diethylamino)-2-[6-(4-ethyl-5-methyl-4H-1,2,4-triazol-3-yl)pyridin-2-yl]-4-[(methylamino)methyl]-2,3-dihydro-1H-pyrrolo[3,4-c]pyridin-1-one]: the pIC50 in assay [1] was 6.73. Moreover, the pKi in assay [2] was 9.47.
Consider `CCN(c1cc2c(c(CNC)n1)CN(c1cccc(N3C(=O)OC[C@@H]3CF)n1)C2=O)C(C)C` [Example 98, 6-[ethyl(propan-2-yl)amino]-2-{6-[(4R)-4-(fluoromethyl)-2-oxo-1,3-oxazolidin-3-yl]pyridin-2-yl}-4-[(methylamino)methyl]-2,3-dihydro-1H-pyrrolo[3,4-c]pyridin-1-one], for which the pIC50 in assay [1] is 6.29. Besides, the pKi in assay [2] was 9.02.
Consider `CC(C)N(C)c1cc2c(c(CN)n1)CN(c1cccc(N3C(=O)OC[C@@H]3C)n1)C2=O` [Example 100, 4-(aminomethyl)-2-{6-[(4S)-4-methyl-2-oxo-1,3-oxazolidin-3-yl]pyridin-2-yl}-6-[methyl(propan-2-yl)amino]-2,3-dihydro-1H-pyrrolo[3,4-c]pyridin-1-one], for which the pIC50 in assay [1] is 7.47. Further, the pKi in assay [2] is over 10.30.
Regarding `CCn1cnnc1-c1cccc(N2Cc3c(cc(C4CCC4)nc3CNC)C2=O)n1` [Example 101, 6-cyclobutyl-2-[6-(4-ethyl-4H-1,2,4-triazol-3-yl)pyridin-2-yl]-4-[(methylamino)methyl]-2,3-dihydro-1H-pyrrolo[3,4-c]pyridin-1-one], in assay [1], the pIC50 was 6.66. The pKi in assay [2] is 9.03.
In the case of `[2H]C([2H])([2H])C([2H])([2H])N(c1cc2c(c(CNC)n1)CN(c1cccc(-c3nncn3CC)n1)C2=O)C([2H])([2H])C([2H])([2H])[2H]` [Example 102, 6-{bis[(pentadeuterio)ethyl]amino}-2-[6-(4-ethyl-4H-1,2,4-triazol-3-yl)pyridin-2-yl]-4-[(methylamino)methyl]-2,3-dihydro-1H-pyrrolo[3,4-c]pyridin-1-one], the pIC50 in assay [1] is 7.13. Further, the pKi in assay [2] is 9.54.
On to `CCCn1cnnc1-c1cccc(N2Cc3c(cc(C4CCC4)nc3CNC)C2=O)n1` [Example 103, 6-cyclobutyl-4-[(methylamino)methyl]-2-[6-(4-propyl-4H-1,2,4-triazol-3-yl)pyridin-2-yl]-2,3-dihydro-1H-pyrrolo[3,4-c]pyridin-1-one], for which the pIC50 in assay [1] is 6.70. Besides, the pKi in assay [2] was 8.94.
Take `CNCc1nc(N2CCC[C@H]2C)cc2c1CN(c1cccc(-c3nncn3C(C)C)n1)C2=O` [Example 104, 4-[(methylamino)methyl]-6-[(2R)-2-methylpyrrolidin-1-yl]-2-{6-[4-(propan-2-yl)-4H-1,2,4-triazol-3-yl]pyridin-2-yl}-2,3-dihydro-1H-pyrrolo[3,4-c]pyridin-1-one]: the pIC50 in assay [1] was 7.29. Further, the pKi in assay [2] was 9.89.
For the molecule `CCCn1cnnc1-c1cccc(N2Cc3c(cc(N4[C@H](C)CC[C@H]4C)nc3CNC)C2=O)n1` [Example 105, 6-[(2R,5R)-2,5-dimethylpyrrolidin-1-yl]-4-[(methylamino)methyl]-2-[6-(4-propyl-4H-1,2,4-triazol-3-yl)pyridin-2-yl]-2,3-dihydro-1H-pyrrolo[3,4-c]pyridin-1-one], the pIC50 in assay [1] is 7.19. In addition, the pKi in assay [2] is 9.68.
Regarding `CCn1cnnc1-c1cccc(N2Cc3c(cc(N4[C@H](C)CC[C@H]4C)nc3CNC)C2=O)n1` [Example 106, 6-[(2R,5R)-2,5-dimethylpyrrolidin-1-yl]-2-[6-(4-ethyl-4H-1,2,4-triazol-3-yl)pyridin-2-yl]-4-[(methylamino)methyl]-2,3-dihydro-1H-pyrrolo[3,4-c]pyridin-1-one], the pIC50 in assay [1] was 7.08. Besides, in assay [2], the pKi was 9.59.
Take `CC(C)n1cnnc1-c1cccc(N2Cc3c(cc(N4CCC[C@H]4C)nc3CN)C2=O)n1` [Example 107, 4-(aminomethyl)-6-[(2R)-2-methylpyrrolidin-1-yl]-2-{6-[4-(propan-2-yl)-4H-1,2,4-triazol-3-yl]pyridin-2-yl}-2,3-dihydro-1H-pyrrolo[3,4-c]pyridin-1-one]: the pIC50 in assay [1] was 7.66. In addition, the pKi in assay [2] was 10.40.
With `CCN(c1cc2c(c(CNC)n1)CN(c1cccc(-c3nncn3C)n1)C2=O)C(C)C` [Example 108, 6-[ethyl(propan-2-yl)amino]-4-[(methylamino)methyl]-2-[6-(4-methyl-4H-1,2,4-triazol-3-yl)pyridin-2-yl]-2,3-dihydro-1H-pyrrolo[3,4-c]pyridin-1-one], the pIC50 in assay [1] was 6.23. For the same molecule, the pKi in assay [2] is 8.43.
The matching figures for `CNCc1nc(N2CCCC2(C)C)cc2c1CN(c1cccc(-c3nncn3C(C)C)n1)C2=O` [Example 109, 6-(2,2-dimethylpyrrolidin-1-yl)-4-[(methylamino)methyl]-2-{6-[4-(propan-2-yl)-4H-1,2,4-triazol-3-yl]pyridin-2-yl}-2,3-dihydro-1H-pyrrolo[3,4-c]pyridin-1-one]: 7.92 and 10.22.
On to `CCn1cnnc1-c1cccc(N2Cc3c(cc(N4[C@H](C)CC[C@H]4C)nc3CN)C2=O)n1` [Example 110, 4-(aminomethyl)-6-[(2R,5R)-2,5-dimethylpyrrolidin-1-yl]-2-[6-(4-ethyl-4H-1,2,4-triazol-3-yl)pyridin-2-yl]-2,3-dihydro-1H-pyrrolo[3,4-c]pyridin-1-one], for which, in assay [1], the pIC50 was 7.07. Besides, the pKi in assay [2] was 9.49.
For `CCn1c(C)nnc1-c1cccc(N2Cc3c(cc(N4[C@H](C)CC[C@H]4C)nc3CNC)C2=O)n1` [Example 111, 6-[(2R,5R)-2,5-dimethylpyrrolidin-1-yl]-2-[6-(4-ethyl-5-methyl-4H-1,2,4-triazol-3-yl)pyridin-2-yl]-4-[(methylamino)methyl]-2,3-dihydro-1H-pyrrolo[3,4-c]pyridin-1-one], the pIC50 in assay [1] was 6.83. Besides, the pKi in assay [2] was 9.00.
On to `CNCc1nc(N2C[C@@H](C)O[C@@H](C)C2)cc2c1CN(c1cccc(-c3nncn3C(C)C)n1)C2=O` [Example 112, 6-[2,6-dimethylmorpholin-4-yl]-4-[(methylamino)methyl]-2-{6-[4-(propan-2-yl)-4H-1,2,4-triazol-3-yl]pyridin-2-yl}-2,3-dihydro-1H-pyrrolo[3,4-c]pyridin-1-one], for which the pIC50 in assay [1] is 6.37. Also, the pKi in assay [2] is 8.83.
In the case of `CCCn1cnnc1-c1cccc(N2Cc3c(cc(N4CCC[C@H]4C(F)(F)F)nc3CNC)C2=O)n1` [Example 113, 4-[(methylamino)methyl]-2-[6-(4-propyl-4H-1,2,4-triazol-3-yl)pyridin-2-yl]-6-[(2S)-2-(trifluoromethyl)pyrrolidin-1-yl]-2,3-dihydro-1H-pyrrolo[3,4-c]pyridin-1-one], in assay [1], the pIC50 was 7.08. Also, the pKi in assay [2] is 9.66.
For `CCn1cnnc1-c1cccc(N2Cc3c(cc(N4CCC[C@@H]4C)nc3CNC)C2=O)n1` [Example 114, 2-[6-(4-ethyl-4H-1,2,4-triazol-3-yl)pyridin-2-yl]-4-[(methylamino)methyl]-6-[(2S)-2-methylpyrrolidin-1-yl]-2,3-dihydro-1H-pyrrolo[3,4-c]pyridin-1-one], in that order: 7.43 and 9.92.
Consider `CCn1cnnc1-c1cccc(N2Cc3c(cc(N4CCC[C@H]4C)nc3CNC)C2=O)n1` [Example 115, 2-[6-(4-ethyl-4H-1,2,4-triazol-3-yl)pyridin-2-yl]-4-[(methylamino)methyl]-6-[(2R)-2-methylpyrrolidin-1-yl]-2,3-dihydro-1H-pyrrolo[3,4-c]pyridin-1-one], for which, in assay [1], the pIC50 is 7.68. In addition, the pKi in assay [2] is over 10.05.
In the case of `CNCc1nc(N2[C@H](C)CC[C@H]2C)cc2c1CN(c1cccc(-c3nnc(C)n3C(C)C)n1)C2=O` [Example 116, 6-[(2R,5R)-2,5-dimethylpyrrolidin-1-yl]-4-[(methylamino)methyl]-2-{6-[5-methyl-4-(propan-2-yl)-4H-1,2,4-triazol-3-yl]pyridin-2-yl}-2,3-dihydro-1H-pyrrolo[3,4-c]pyridin-1-one], the pIC50 in assay [1] was 6.42. Also, in assay [2], the pKi was 8.98.
Take `CCC(CC)n1cnnc1-c1cccc(N2Cc3c(cc(N(C)C)nc3CN)C2=O)n1` [Example 117, 4-(aminomethyl)-6-(dimethylamino)-2-{6-[4-(pentan-3-yl)-4H-1,2,4-triazol-3-yl]pyridin-2-yl}-2,3-dihydro-1H-pyrrolo[3,4-c]pyridin-1-one]: the pIC50 in assay [1] was 7.05. The pKi in assay [2] is 9.34.
Take `CNCc1nc(N2[C@H](C)CC[C@H]2C)cc2c1CN(c1cccc(N3C(=O)OC[C@@H]3CF)n1)C2=O` [Example 118, 6-[(2R,5R)-2,5-dimethylpyrrolidin-1-yl]-2-{6-[(4R)-4-(fluoromethyl)-2-oxo-1,3-oxazolidin-3-yl]pyridin-2-yl}-4-[(methylamino)methyl]-2,3-dihydro-1H-pyrrolo[3,4-c]pyridin-1-one]: in assay [1], the pIC50 was 6.83. Moreover, in assay [2], the pKi is 9.05.
As for `CCC(CC)n1cnnc1-c1cccc(N2Cc3c(cc(N4[C@H](C)CC[C@H]4C)nc3CN)C2=O)n1` [Example 119, 4-(aminomethyl)-6-[(2R,5R)-2,5-dimethylpyrrolidin-1-yl]-2-{6-[4-(pentan-3-yl)-4H-1,2,4-triazol-3-yl]pyridin-2-yl}-2,3-dihydro-1H-pyrrolo[3,4-c]pyridin-1-one], in assay [1], the pIC50 is 6.98. In addition, in assay [2], the pKi was 9.28.
Consider `CCCn1cnnc1-c1cccc(N2Cc3c(cc(N4CCC[C@@H]4C(F)(F)F)nc3CNC)C2=O)n1` [Example 120, 4-[(methylamino)methyl]-2-[6-(4-propyl-4H-1,2,4-triazol-3-yl)pyridin-2-yl]-6-[(2R)-2-(trifluoromethyl)pyrrolidin-1-yl]-2,3-dihydro-1H-pyrrolo[3,4-c]pyridin-1-one], for which the pIC50 in assay [1] was 7.25. In assay [2], the pKi was over 10.05.

Values taken from US11142525B2 (Pfizer Inc., priority 2018, dated 2021).
